From patent US20110009493A1 (priority 2008, published 2011) come the findings set out here.

Read-outs that look alike come from different tables or passages of the source.

The subject of assay [1] is Mycobacterium bovis. Format: cell-based.
The test system of assay [2] is Pseudomonas aeruginosa. Briefly: Bacterial testing, ISO-GRID membrane filter system. Format: cell-based. The settings on record: 400 ppm hard water; for Kill of Pseudomonas aeruginosa (in words): 1 minute, 5% soil; for Results (percent kill) / Results Log10 Reduction: 1 minute contact, 5% organic soil, bacteria 6.81 log10 (CFU/g). As for the experimental part:
• Bacteria (gram negative): Pseudomonas aeruginosa • Pathogenesis: Opportunistic pathogen in humans, cause of 1 in 10 nosocomial infections^1, causes wound, blood, burn, urinary tract, lung and ear infections. ^1http://textbookofbacteriology.net/pseudomonas.html • Concentration of Bacteria: 6.81 log10 (CFU/g) • Solution Contact Time: 1 minute • Dilution media: hard water (400 ppm) • Bio burden: 5% organic soil
The tests were performed using the ISO-GRID™ membrane filter system (Neogen Corp., Lansing, Mich., USA) according to a slightly modified procedure described in the ISO-GRID™ Methods Manual (3rd Ed.; QA Life Sciences, Inc., San Diego, Calif., USA; 1999).

The mark [3] stands for this setting: ten minutes contact, 5% fetal bovine serum, 5.8*10^5 CFU/carrier.
Setting [4] is: ten minutes contact, 5% fetal bovine serum.

Take `O=Cc1ccccc1C=O` [2., Orthophthalaldehyde]: in assay [1] (setting [3]), the “Pass/Fail (Intermediate 30 day read)” value is given as “Fail” and the “Results (Intermediate 30 day read)” value is recorded as 1/10.

With `O=Cc1ccccc1C=O` [OPA, orthophthalaldehyde], the “Kill of Pseudomonas aeruginosa (in words)” value in assay [2] is recorded as “Neither OPA nor DDABC alone were sufficient to kill all”. For the same compound, the “Kill of Mycobacterium bovis (in words)” value in assay [1] (setting [4]) is on record as “neither OPA, nor DDABC alone was sufficient to provide complete kill”.

With `O=Cc1ccccc1C=O` [compound 4, Orthophthalaldehyde], in assay [2], the “Results (percent kill)” value worked out at 40.2% and the “Results Log10 Reduction” value was determined as 2.74 Log10.

Take “Didecyldimethylammonium bicarbonate/carbonate [compound 3]”: in assay [2], the “Results (percent kill)” value amounted to 87.4% and the “Results Log10 Reduction” value came out at 5.95 Log10.

Regarding “didecyldimethylammomum bicarbonate/carbonate [1.]”, in assay [1], the “Pass/Fail (Intermediate 30 day read)” value is given as “Fail” and the “Results (Intermediate 30 day read)” value is reported as 1/10.

For the compound “didecyldimethylammonium bicarbonate/carbonate [DDABC]”, in assay [2], the “Kill of Pseudomonas aeruginosa (in words)” value is on record as “Neither OPA nor DDABC alone were sufficient to kill all”. Further, in assay [1] (setting [4]), the “Kill of Mycobacterium bovis (in words)” value is “neither OPA, nor DDABC alone was sufficient to provide complete kill”.
